pIC50: −log10 of the molar value.

The assay addresses T1, G1 APOL1 (Homo sapiens, UniProt O14791, I384M/S342G).
T1 construct: expressed in transfected cells
T1 sequence (O14791 28-398 S342G/I384M): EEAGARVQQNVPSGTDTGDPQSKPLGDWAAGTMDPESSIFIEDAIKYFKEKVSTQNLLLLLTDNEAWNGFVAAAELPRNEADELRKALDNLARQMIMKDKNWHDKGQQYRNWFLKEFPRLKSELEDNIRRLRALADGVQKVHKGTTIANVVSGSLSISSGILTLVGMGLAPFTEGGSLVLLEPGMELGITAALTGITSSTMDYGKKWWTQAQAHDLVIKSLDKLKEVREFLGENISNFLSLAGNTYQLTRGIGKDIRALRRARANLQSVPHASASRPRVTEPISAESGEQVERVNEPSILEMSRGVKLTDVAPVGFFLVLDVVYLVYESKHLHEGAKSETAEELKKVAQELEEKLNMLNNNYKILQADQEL
Briefly: Acute APOL1 Thallium Assay with Inducible Stable Clones of HEK 293 Cells. The format is cell-based. To be noted: HEK 293 inducible stable clones, G1 APOL1; read-out: Thallium Assay (IC50). The method in brief: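 Pore activity was read as the fluorescence increase from Tl+ entering cells loaded with an AM-ester thallium indicator dye. The cells were tetracycline-inducible HEK293 T-Rex expressing G1 APOL1 (clone DC3.25), induced when plated at 26000 per well and incubated at 37° C.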
As for `O=C(N[C@H]1COC[C@@H]1O)OCCc1c(-c2ccc(F)cc2)[nH]c2c(F)cc(F)cc12` [Compound 474], the negative-log IC50 (pIC50) was 6.00 to 6.60.
In the case of `NC(=O)[C@H](CO)NC(=O)OCCc1c(-c2ccc(F)cc2)[nH]c2c(F)cc(F)cc12` [Compound 475] it was less than 6.00; in that of `O=C(NC[C@@H](O)CO)OCCc1c(-c2ccc(F)cc2)[nH]c2c(F)cc(F)cc12` [Compound 476], less than 6.00.
Next, `O=C(NCc1cnco1)OCCc1c(-c2ccc(F)cc2)[nH]c2c(F)cc(F)cc12` [Compound 477]: less than 6.00; `Cn1cnc(CNC(=O)OCCc2c(-c3ccc(F)cc3)[nH]c3c(F)cc(F)cc23)c1` [Compound 478]: less than 6.00; `COC1CC1NC(=O)OCCc1c(-c2ccc(F)cc2)[nH]c2c(F)cc(F)cc12` (centres unmarked) [Compound 479]: less than 6.00.
In the case of `O=C(NCc1ccco1)OCCc1c(-c2ccc(F)cc2)[nH]c2c(F)cc(F)cc12` [Compound 481], the pIC50 was less than 6.00.
Next, `CN(C[C@H](O)CO)C(=O)OCCc1c(-c2ccc(F)cc2)[nH]c2c(F)cc(F)cc12` [Compound 482]: less than 6.00.
For the molecule `CC(O)CCNC(=O)OCCc1c(-c2ccc(F)cc2)[nH]c2c(F)cc(F)cc12` (centres unmarked) [Compound 483], the pIC50 is less than 6.00.
On to `O=C(NCc1ncc[nH]1)OCCc1c(-c2ccc(F)cc2)[nH]c2c(F)cc(F)cc12` [Compound 484], for which the pIC50 is less than 6.00.
Next, `Cc1ccc(CNC(=O)OCCc2c(-c3ccc(F)cc3)[nH]c3c(F)cc(F)cc23)o1` [Compound 485]: less than 6.00; `O=C(NCC1(O)CCC1)OCCc1c(-c2ccc(F)cc2)[nH]c2c(F)cc(F)cc12` [Compound 486]: less than 6.00; `Cc1cnc(CNC(=O)OCCc2c(-c3ccc(F)cc3)[nH]c3c(F)cc(F)cc23)o1` [Compound 487]: less than 6.00.
As to `O=C(Nc1cc(=O)[nH][nH]1)OCCc1c(-c2ccc(F)cc2)[nH]c2c(F)cc(F)cc12` [Compound 488], the negative-log IC50 (pIC50) was less than 6.00.
Next, `C[C@]1(O)C[C@@H](NC(=O)OCCc2c(-c3ccc(F)cc3)[nH]c3c(F)cc(F)cc23)C1` [Compound 489]: less than 6.00; `Cn1cc(CNC(=O)OCCc2c(-c3ccc(F)cc3)[nH]c3c(F)cc(F)cc23)nn1` [Compound 490]: less than 6.00; `O=C(NCC1CCOC1)OCCc1c(-c2ccc(F)cc2)[nH]c2c(F)cc(F)cc12` (centres unmarked) [Compound 491]: less than 6.00.
Consider `Cc1cc(CNC(=O)OCCc2c(-c3ccc(F)cc3)[nH]c3c(F)cc(F)cc23)on1` [Compound 492], for which the negative logarithm of the IC50 (pIC50) is less than 6.00.
In the case of `O=C(NCc1cn(CC(F)(F)F)cn1)OCCc1c(-c2ccc(F)cc2)[nH]c2c(F)cc(F)cc12` [Compound 493] it was less than 6.00.
In the case of `CN1CC(NC(=O)OCCc2c(-c3ccc(F)cc3)[nH]c3c(F)cc(F)cc23)CC1=O` (centres unmarked) [Compound 494] it was less than 6.00; in that of `CO[C@H]1C[C@@H](NC(=O)OCCc2c(-c3ccc(F)cc3)[nH]c3c(F)cc(F)cc23)C1` [Compound 496], less than 6.00; in that of `O=C(NCc1cccnc1)OCCc1c(-c2ccc(F)cc2)[nH]c2c(F)cc(F)cc12` [Compound 497], less than 6.00.
Next, `O=C(NCC1(O)CCS(=O)(=O)C1)OCCc1c(-c2ccc(F)cc2)[nH]c2c(F)cc(F)cc12` (centres unmarked) [Compound 498]: less than 6.00.
In the case of `CCOCCc1c(-c2ccc(F)cc2)[nH]c2c(F)cc(F)cc12` [Compound 503, 3-(2-ethoxyethyl)-5,7-difluoro-2-(4-fluorophenyl)-1H-indole], the pIC50 was less than 6.00.
Next, `O=C(Cc1c(-c2ccc(F)cc2)[nH]c2ccccc12)NCC(O)CO` (centres unmarked) [Compound 516, N-(2,3-dihydroxypropyl)-2-(2-(4-fluorophenyl)-1H-indol-3-yl)acetamide]: less than 6.00; `O=C(/C=C/c1c(-c2ccc(F)cc2)[nH]c2c(F)cc(F)cc12)N[C@H]1CCNC1=O` [Compound 519, (E)-3-[5,7-difluoro-2-(4-fluorophenyl)-1H-indol-3-yl]-N-[(3S)-2-oxopyrrolidin-3-yl]prop-2-enamide]: more than 6.60.
Next, `O=C(/C=C/c1c(-c2ccc(F)cc2)[nH]c2c(F)ccc(F)c12)N[C@H]1CCNC1=O` [Compound 520, (E)-3-[4,7-difluoro-2-(4-fluorophenyl)-1H-indol-3-yl]-N-[(3S)-2-oxopyrrolidin-3-yl]prop-2-enamide]: less than 6.00; `COC(=O)/C=C/c1c(-c2ccc(C#N)cc2)[nH]c2c(F)cc(F)cc12` [Compound 521, Methyl (E)-3-[2-(4-cyanophenyl)-5,7-difluoro-1H-indol-3-yl]prop-2-enoate]: less than 6.00.
In the case of `N#Cc1ccc(-c2[nH]c3c(F)cc(F)cc3c2/C=C/C(=O)N[C@H]2CCNC2=O)cc1` [Compound 522, (E)-3-[2-(4-cyanophenyl)-5,7-difluoro-1H-indol-3-yl]-N-[(3S)-2-oxopyrrolidin-3-yl]prop-2-enamide] it was less than 6.00; in that of `CC(C)(O)C#Cc1c(-c2ccc(F)cc2)[nH]c2c(F)cc(F)cc12` [Compound 523, 4-[5,7-difluoro-2-(4-fluorophenyl)-1H-indol-3-yl]-2-methyl-but-3-yn-2-ol], less than 6.00; in that of `OC1(CC#Cc2c(-c3ccc(F)cc3)[nH]c3c(F)cc(F)cc23)COC1` [Compound 524, 3-[3-[5,7-difluoro-2-(4-fluorophenyl)-1H-indol-3-yl]prop-2-ynyl]oxetan-3-ol], less than 6.00.
For `OC1(CC#Cc2c(-c3ccc(F)cc3)[nH]c3c(F)cc(F)cc23)CCC1` [Compound 525, 1-[3-[5,7-difluoro-2-(4-fluorophenyl)-1H-indol-3-yl]prop-2-ynyl]cyclobutanol], the negative-log IC50 (pIC50) is less than 6.00.

Usually pIC50 stands for −log10 of the IC50, conventionally taken in molar units.
